Measurements as given in patent publication US11919965B2, “Methods of treating multiple myeloma with bispecific anti-BCMA x anti-CD3 antibodies” (Regeneron Pharmaceuticals, Inc., priority 2019, dated 2024).

What was measured:
Assay type in all cases: in vivo, mouse
[1] = tested on: BCMA-expressing NCI-H929 multiple myeloma tumors; experiment: Xenogenic tumor model, NCI-H929 + human PBMC s.c. in NSG mice, treatment from implantation (Example 10); conditions: 4 mg/kg
Protocol: To determine the in vivo efficacy of BCMA×CD3 bispecific antibodies (Abs), a xenogenic tumor study was performed. Immunodeficient NOD.Cg-Prkdc^scidII2rgtm1Wjl/SzJ (NSG) mice were subcutaneously implanted with a mixture of 10×10^6 BCMA-expressing NCI-H929 multiple myeloma cells and 0.5×10^6 human peripheral blood mononuclear cells (PBMC) isolated from a normal donor. […] The mice were administered Abs twice per week for a total of three weeks, and tumor growth was assessed over 40 days. While BCMA^+ tumors grew similarly in the vehicle-, isotype control-, and CD3-binding control-treated mice, both BCMA×CD3 Abs that were tested prevented the growth of tumors in vivo.
Implantation and measurement of syngeneic tumors: NSG mice were subcutaneously implanted with a mixture of 10×10^6 BCMA-expressing NCI-H929 multiple myeloma cells and 0.5×10^6 PBMC derived from a normal donor. […] The mice were administered Abs twice per week for a total of three weeks. Tumor growth was measured with calipers twice per week for the duration of the experiment. Mice were sacrificed 40 days after tumor implantation.
(§1) Calculation of syngeneic tumor growth and inhibition: In order to determine tumor volume by external caliper, the greatest longitudinal diameter (length in mm) and the greatest transverse diameter (width in mm) were determined. Tumor volumes based on caliper measurements were calculated by the formula: Volume (mm^3)=(length× width^2)/2.

[2] = tested on: established BCMA-expressing NCI-H929 multiple myeloma tumors; experiment: Xenogenic tumor model, established NCI-H929 tumors + human PBMC in NSG mice, treatment from day 5 (Example 12); conditions: for Average Tumor Size (mm3) ± SEM on Day 5: day of first dose
Protocol: To determine the in vivo efficacy of anti-BCMA×anti-CD3 bispecific antibodies (Abs), a xenogenic tumor study was performed. Immunodeficient NOD.Cg-Prkdc^scidII2rg^tm1Wjl/SzJ (NSG) mice were subcutaneously implanted with a mixture of 10×10^6 BCMA-expressing NCI-H929 human multiple myeloma tumor cells and 0.5×10^6 human peripheral blood mononuclear cells (PBMC) isolated from a normal, healthy donor. The tumors were allowed to grow and establish for 5 days until they were approximately 70 mm^3 in size. […] The mice were administered these Abs twice per week for a total of seven doses, and tumor growth was assessed over 55 days.
Implantation and measurement of xenogenic tumors: NSG mice were subcutaneously implanted with a mixture of 10×10^6 BCMA-expressing NCI-H929 multiple myeloma cells and 0.5×10^6 PBMC derived from a normal, healthy donor. The tumors were allowed to grow and establish for 5 days until they were approximately 70 mm^3 in size. […] The mice were administered Abs twice per week for a total of seven doses. Tumor growth was measured with calipers twice per week for the duration of the experiment.
as §1, with “xenogenic” for “syngeneic”

[3] = tested on: BCMA-expressing MOLP-8 multiple myeloma tumors; experiment: Xenogenic tumor model, MOLP-8 + human PBMC s.c. in NSG mice, dose response (Example 13)
Protocol: To determine the in vivo efficacy of anti-BCMA×anti-CD3 bispecific antibodies (Abs), a xenogenic tumor study was performed. Immunodeficient NOD.Cg-Prkdc^scidII2rg^tm1Wjl/SzJ (NSG) mice were subcutaneously implanted with a mixture of 5×10^6 BCMA-expressing MOLP-8 human multiple myeloma tumor cells and 1×10^6 human peripheral blood mononuclear cells (PBMC) isolated from a normal, healthy donor. […] The mice were administered these Abs twice per week for a total of seven doses, and tumor growth was assessed over 56 days. While the BCMA+ MOLP-8 tumors grew similarly in the vehicle- and CD3-binding control-treated mice, both BCMA×CD3 Abs that were tested prevented the growth of tumors in a dose-dependent manner in vivo.
Implantation and measurement of xenogenic tumors: NSG mice were subcutaneously implanted with a mixture of 5×10^6 BCMA-expressing MOLP-8 multiple myeloma cells and 1×10^6 PBMC derived from a normal, healthy donor. […] The mice were administered Abs twice per week for a total of seven doses. Tumor growth was measured by caliper twice per week for the duration of the experiment.
as §1, with “xenogenic” for “syngeneic”

REGN5459: anti-BCMA×anti-CD3 bispecific antibody: mAb21581 BCMA heavy chain, mAb7221G20 CD3 heavy chain and common light chain; SEQ ID NOs 126, 128, 129
Average Tumor Size (mm3) ± SEM on Day 4 [1]: 26.5 ± 6.2 mm3
Average Tumor Size (mm3) ± SEM on Day 7 [1]: 0 ± 0 mm3
Average Tumor Size (mm3) ± SEM on Day 11 [1]: 0 ± 0 mm3
Average Tumor Size (mm3) ± SEM on Day 14 [1]: 0 ± 0 mm3
Average Tumor Size (mm3) ± SEM on Day 18 [1]: 0 ± 0 mm3
Average Tumor Size (mm3) ± SEM on Day 21 [1]: 0 ± 0 mm3
Average Tumor Size (mm3) ± SEM on Day 28 [1]: 0 ± 0 mm3
Average Tumor Size (mm3) ± SEM on Day 40 [1]: 0 ± 0 mm3
Average Tumor Size (mm3) ± SEM on Day 8 ([2]; 0.04 mg/kg): 152.3 ± 20.0 mm3
Average Tumor Size (mm3) ± SEM on Day 12 ([2]; 0.04 mg/kg): 462.5 ± 57.7 mm3
Average Tumor Size (mm3) ± SEM on Day 15 ([2]; 0.04 mg/kg): 1094.2 ± 78.9 mm3
Average Tumor Size (mm3) ± SEM on Day 19 ([2]; 0.04 mg/kg): 2412.5 ± 184.6 mm3
Average Tumor Size (mm3) ± SEM on Day 22 ([2]; 0.04 mg/kg): 3285.9 ± 227.3 mm3
Average Tumor Size (mm3) ± SEM on Day 5 ([2]; 0.04 mg/kg): 74.9 ± 6.4 mm3
Average Tumor Size (mm3) ± SEM on Day 8 ([2]; 0.4 mg/kg): 171.9 ± 23.2 mm3
Average Tumor Size (mm3) ± SEM on Day 12 ([2]; 0.4 mg/kg): 233.8 ± 63.5 mm3
Average Tumor Size (mm3) ± SEM on Day 15 ([2]; 0.4 mg/kg): 327.2 ± 135.6 mm3
Average Tumor Size (mm3) ± SEM on Day 19 ([2]; 0.4 mg/kg): 606.2 ± 288.8 mm3
Average Tumor Size (mm3) ± SEM on Day 22 ([2]; 0.4 mg/kg): 815.4 ± 387.1 mm3
Average Tumor Size (mm3) ± SEM on Day 27 ([2]; 0.4 mg/kg): 1849.9 ± 903.1 mm3
Average Tumor Size (mm3) ± SEM on Day 30 ([2]; 0.4 mg/kg): 661.8 ± 490.1 mm3
Average Tumor Size (mm3) ± SEM on Day 35 ([2]; 0.4 mg/kg): 996.8 ± 771.0 mm3
Average Tumor Size (mm3) ± SEM on Day 40 ([2]; 0.4 mg/kg): 375.6 ± 375.6 mm3
Average Tumor Size (mm3) ± SEM on Day 55 ([2]; 0.4 mg/kg): 0 ± 0 mm3
Average Tumor Size (mm3) ± SEM on Day 5 ([2]; 0.4 mg/kg): 69.5 ± 4.1 mm3
Average Tumor Size (mm3) ± SEM on Day 8 ([2]; 4 mg/kg): 45.8 ± 9.8 mm3
Average Tumor Size (mm3) ± SEM on Day 15 ([2]; 4 mg/kg): 0 ± 0 mm3
Average Tumor Size (mm3) ± SEM on Day 19 ([2]; 4 mg/kg): 0 ± 0 mm3
Average Tumor Size (mm3) ± SEM on Day 22 ([2]; 4 mg/kg): 0 ± 0 mm3
Average Tumor Size (mm3) ± SEM on Day 27 ([2]; 4 mg/kg): 0 ± 0 mm3
Average Tumor Size (mm3) ± SEM on Day 30 ([2]; 4 mg/kg): 0 ± 0 mm3
Average Tumor Size (mm3) ± SEM on Day 35 ([2]; 4 mg/kg): 0 ± 0 mm3
Average Tumor Size (mm3) ± SEM on Day 40 ([2]; 4 mg/kg): 0 ± 0 mm3
Average Tumor Size (mm3) ± SEM on Day 55 ([2]; 4 mg/kg): 0 ± 0 mm3
Average Tumor Size (mm3) ± SEM on Day 5 ([2]; 4 mg/kg): 61.8 ± 5.2 mm3
Average Tumor Size (mm3) ± SEM on Day 3 ([3]; 0.04 mg/kg): 11.7 ± 2.1 mm3
Average Tumor Size (mm3) ± SEM on Day 7 ([3]; 0.04 mg/kg): 37.0 ± 5.7 mm3
Average Tumor Size (mm3) ± SEM on Day 10 ([3]; 0.04 mg/kg): 104 ± 23.0 mm3
Average Tumor Size (mm3) ± SEM on Day 14 ([3]; 0.04 mg/kg): 356.7 ± 84.6 mm3
Average Tumor Size (mm3) ± SEM on Day 17 ([3]; 0.04 mg/kg): 645.6 ± 140.9 mm3
Average Tumor Size (mm3) ± SEM on Day 21 ([3]; 0.04 mg/kg): 1442.4 ± 310.7 mm3
Average Tumor Size (mm3) ± SEM on Day 23 ([3]; 0.04 mg/kg): 2124.4 ± 444.1 mm3
Average Tumor Size (mm3) ± SEM on Day 28 ([3]; 0.04 mg/kg): 1939.3 ± 840.6 mm3
Average Tumor Size (mm3) ± SEM on Day 31 ([3]; 0.04 mg/kg): 2688.7 ± 1176.6 mm3
Average Tumor Size (mm3) ± SEM on Day 35 ([3]; 0.04 mg/kg): 612.1 ± 0 mm3
Average Tumor Size (mm3) ± SEM on Day 3 ([3]; 0.4 mg/kg): 14.0 ± 1.6 mm3
Average Tumor Size (mm3) ± SEM on Day 7 ([3]; 0.4 mg/kg): 0 ± 0 mm3
Average Tumor Size (mm3) ± SEM on Day 10 ([3]; 0.4 mg/kg): 0 ± 0 mm3
Average Tumor Size (mm3) ± SEM on Day 14 ([3]; 0.4 mg/kg): 0 ± 0 mm3
Average Tumor Size (mm3) ± SEM on Day 17 ([3]; 0.4 mg/kg): 0 ± 0 mm3
Average Tumor Size (mm3) ± SEM on Day 21 ([3]; 0.4 mg/kg): 0 ± 0 mm3
Average Tumor Size (mm3) ± SEM on Day 23 ([3]; 0.4 mg/kg): 0 ± 0 mm3
Average Tumor Size (mm3) ± SEM on Day 28 ([3]; 0.4 mg/kg): 0 ± 0 mm3
Average Tumor Size (mm3) ± SEM on Day 31 ([3]; 0.4 mg/kg): 0 ± 0 mm3
Average Tumor Size (mm3) ± SEM on Day 35 ([3]; 0.4 mg/kg): 0 ± 0 mm3
Average Tumor Size (mm3) ± SEM on Day 42 ([3]; 0.4 mg/kg): 0 ± 0 mm3
Average Tumor Size (mm3) ± SEM on Day 56 ([3]; 0.4 mg/kg): 0 ± 0 mm3
Average Tumor Size (mm3) ± SEM on Day 3 ([3]; 4 mg/kg): 12.9 ± 1.3 mm3
Average Tumor Size (mm3) ± SEM on Day 7 ([3]; 4 mg/kg): 0.6 ± 0.6 mm3
Average Tumor Size (mm3) ± SEM on Day 10 ([3]; 4 mg/kg): 0 ± 0 mm3
Average Tumor Size (mm3) ± SEM on Day 14 ([3]; 4 mg/kg): 0 ± 0 mm3
Average Tumor Size (mm3) ± SEM on Day 17 ([3]; 4 mg/kg): 0 ± 0 mm3
Average Tumor Size (mm3) ± SEM on Day 21 ([3]; 4 mg/kg): 0 ± 0 mm3
Average Tumor Size (mm3) ± SEM on Day 23 ([3]; 4 mg/kg): 0 ± 0 mm3
Average Tumor Size (mm3) ± SEM on Day 28 ([3]; 4 mg/kg): 1.9 ± 1.9 mm3
Average Tumor Size (mm3) ± SEM on Day 31 ([3]; 4 mg/kg): 3.8 ± 3.0 mm3
Average Tumor Size (mm3) ± SEM on Day 35 ([3]; 4 mg/kg): 9.3 ± 7.5 mm3
Average Tumor Size (mm3) ± SEM on Day 42 ([3]; 4 mg/kg): 12.8 ± 12.8 mm3
Average Tumor Size (mm3) ± SEM on Day 56 ([3]; 4 mg/kg): 17.2 ± 17.2 mm3
